From patent US6866995B1, “Method to enable assessment of growth and death of micro-organisms” (priority 1999, dated 2005)
Read-outs that look alike come from different tables or passages of the source.

Assays:
[1] = system: E. coli with plasmid pGFP+luc*; assay type: cell-based, E. coli strain MC1061; conditions: 5 min
Protocol: Environ. Microbiol. 64: 515-519.
The measurements were done with a combined fluoro- and luminometer, Fluoroscan Ascent FL, provided by Labsystems Ltd. (Helsinki, Finland). Cell growth was simultaneously followed with a flow cytometer.
For the measurements, 100 μl of bacterial culture was pipetted into the microtiter plate wells. Fluorescence was measured using 485 nm for excitation and 510 nm for emission. Measuring time was 20 ms. After the fluorescence measurement 100 μl of luciferin in 0.1 M citric acid-sodium citrate buffer (pH 5.0) was dispensed into the wells and the plate was shaken for two minutes (shaking diameter 1 mm, 1 020 rpm), after which luminescence was recorded with a measuring time of 1000 ms.

[2] = system: E. coli with plasmid pGFP+luc*; conditions: for death: incubation 5 min, 30° C., FIGS. 4 and 5 (plating and live/dead staining)
Protocol: (§1) One colony from a pure culture plate was inoculated in 5 ml of LB-medium with ampicillin (100 μg/ml) and grown at +37° C. in a shaker, 250 rpm, for about three hours. After that, the number of cells per milliliter was determined with flow cytometry by using fluorescent spherical latex particles as a reference. One million cells were then removed to an erlenmeyer with 50 ml of LB medium and ampicillin. The culture was grown over night in a shaker, 190 rpm, at room temperature to prevent the culture from growing into the stationary phase during the night. In the morning, the culture was transferred to and grown in a shaker, 330 rpm, until the stationary phase was reached or used after growth at +30° C. for about 1 h to study the influence of ethanol or serum complement as described below.
(§2) Ethanol (Aa, Primalco Oy) was diluted into pure water to obtain concentrations of […], 25, 10, 5, 1 and 0% of ethanol when 500 μl of said dilution was added to 500 μl of said culture in an eppendorf tube. The mixture was vortexed and incubated for 5 minutes before measuring fluorescence and luminescence. Live cells were again counted by plating and also by live/dead staining. In the live/dead protocol used the stain cyto 9 stains all cells whereas propidium iodide stains only the dead cells. After staining, cells are passed through a flow cytometer, with which dead and live cells can be differentiated and their proportion determined. (Virta et al. (1998) Appl. Environ. Microbiol. 64: 515-519.)
The influence of serum complement on the said recombinant E. coli strain was studied using an incubation time of 90 min as described for a different recombinant E. coli strain used in Virta et al. (1998) Appl. Environ. Microbiol. 64: 515-519.
Samples for plating were diluted 10^2 to 10^7 fold with 150 mM NaCl and plated onto L agar plates (L broth containing 1.6% agar). Colonies were counted after overnight incubation at 37° C.

[3] = system: E. coli with plasmid pGFP+luc*; conditions: with increased ethanol concentration, 5 min, FIG. 5
Protocol: as §1
as §2, with “In the live/dead protocol used the stain cyto 9 stains all cells whereas propidium iodide stains only the dead cells.” left out, “(Virta et al. (1998) Appl. Environ. Microbiol. 64: 515-519.)” left out

For CCO [ethanol, Ethanol], the fluorescence ([1]; whatever the ethanol concentration (0-50%), FIG. 2) was “essentially constant”, the luminescence ([1]; with increased ethanol concentration, FIG. 3) was “dropped dramatically” and the death ([2]; ethanol concentrations above 10%) was “very pronounced significance”. For the same molecule, the death ([2]; ethanol concentrations below 5%) was “more or less unsignificant”, the “live cell count according to plate count” value ([2]; with increased ethanol concentration, 5 min, FIG. 4) was “dramatically decreasing” and the “percentage of live cells according to the live/dead staining” value [3] was “dramatically decreasing”.
